Measurements as given in patent publication US8846739B2, “TGR5 agonists” (Exelixis Patent Company LLC, priority 2009, dated 2014).

Assays:
human TGR5 (h-TGR5) = target: T1, human TGR5 (h-TGR5) (Homo sapiens, UniProt Q8TDU6); experiment: TGR5/CRE-Luciferase Assay; assay type: cell-based; conditions: HEK 293 hTGR5/CRE-Luc cells, 6 hours incubation, read-out: CRE-Luc Agonist (EC50)
T1 sequence (Q8TDU6 1-330): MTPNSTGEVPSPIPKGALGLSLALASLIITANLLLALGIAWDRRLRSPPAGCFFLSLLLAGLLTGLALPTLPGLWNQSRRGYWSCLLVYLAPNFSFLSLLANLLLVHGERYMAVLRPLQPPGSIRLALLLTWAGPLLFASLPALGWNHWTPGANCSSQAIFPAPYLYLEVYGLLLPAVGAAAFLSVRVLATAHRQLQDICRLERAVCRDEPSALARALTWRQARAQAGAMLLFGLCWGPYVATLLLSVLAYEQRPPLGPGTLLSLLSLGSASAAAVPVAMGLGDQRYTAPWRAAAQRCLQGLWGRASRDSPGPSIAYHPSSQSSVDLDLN
How it was run: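 HEK 293 CRE-Luciferase cells stably expressing the receptor, plated in DMEM 18-20 h before assay, then exposed to serially diluted compounds (DMEM with 5% DMSO) for 6 h. Luciferase read-out after lysis; EC50 from dose-response.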

h-TGR5 = target: T2, h-TGR5 (Homo sapiens, UniProt Q8TDU6); experiment: TGR5 cAMP Assay using Cisbio cAMP Dynamic 2 htrf assay kit; assay type: cell-based; conditions: hTGR5CRE-luc HEK 293 cells
T2 sequence (Q8TDU6 1-330): T1 sequence (Q8TDU6 1-330)

EC50 (human TGR5 (h-TGR5)) [nM]	EC50 (h-TGR5) [nM]	Structure (SMILES)
< 100	< 100	CC[N+](CC)(CC)CCCNC(=O)NS(=O)(=O)c1cc(F)c(CSc2ncc(C(C)(C)c3ccc(Cl)c(OC)c3)n2-c2ccc(F)cc2)c(F)c1 [Example 8, 3-(3-(4-((5-(2-(4-Chloro-3-methoxyphenyl)propan-2-yl)-1-(4-fluorophenyl)-1H-imidazol-2-ylthio)methyl)-3,5-difluorophenylsulfonyl)ureido)-N,N,N-triethylpropan-1-aminium 2,2,2-trifluoroacetate]
< 100	< 100	COc1cc(C(C)(C)c2cnc(SCc3c(F)cc(S(=O)(=O)NCCC[n+]4ccccc4)cc3Cl)n2-c2ccc(F)cc2)ccc1F [Example 9, 1-(3-(3-chloro-5-fluoro-4-((5-(2-(4-fluoro-3-methoxyphenyl)propan-2-yl)-1-(4-fluorophenyl)-1H-imidazol-2-ylthio)methyl)phenylsulfonamido)propyl)pyridinium methanesulfonate]
< 100	< 100	COc1cc(C(C)(C)c2cnc(SCc3c(F)cc(S(=O)(=O)N(CCC[N+](C)(C)C)CC(=O)O)cc3F)n2-c2ccc(F)cc2)ccc1Cl [Example 12]
